{"source": "ChEMBL document CHEMBL1158104", "about": "“Mooloolabenes A-E, norsesterterpenes from the Australian sponge Hyattella intestinalis” (J Nat Prod, 2006)", "data": [{"test_system": "P388", "assay": "Cytotoxicity against mouse P388 cells", "type": "functional, cell-based", "units": {"IC50": "µg/mL"}, "values": [{"smiles": "CC1(C)CCC[C@]2(C)[C@H]3CC[C@]4(C)[C@@H](C=O)C(C=O)=CC[C@H]4C3=CC[C@@H]12", "note": "[MOOLOOLABENE A]", "IC50": 0.8}, {"smiles": "CC1(C)CCC[C@]2(C)[C@H]3CC[C@]4(C)[C@H](C=O)C(C=O)=CC[C@H]4C3=CC[C@@H]12", "note": "[MOOLOOLABENE B]", "IC50": 1.2}, {"smiles": "CC(=O)OC[C@@]1(C)CCC[C@]2(C)[C@H]3CC[C@]4(C)[C@@H](C=O)C(C=O)=CC[C@H]4C3=CC[C@@H]12", "note": "[MOOLOOLABENE C]", "IC50": 3}, {"smiles": "CC(=O)O[C@@H]1OCC2=CC[C@H]3C4=C[C@@H](OC(C)=O)[C@H]5C(C)(C)CCC[C@]5(C)[C@H]4CC[C@]3(C)[C@H]21", "note": "[MOOLOOLABENE D]", "IC50": 3}, {"smiles": "CC(=O)O[C@@H]1OCC2=CC[C@H]3C4=CC[C@H]5C(C)(C)CCC[C@]5(C)[C@H]4CC[C@]3(C)[C@H]21", "note": "[MOOLOOLABENE E]", "IC50": 3}, {"smiles": "CC(=O)O[C@@H]1OC=C2CC[C@@H]3[C@](C)(CC[C@@H]4[C@@]5(C)CCCC(C)(C)[C@@H]5CC[C@@]34C=O)[C@H]21", "note": "[MOOLOOLALDEHYDE]", "IC50": 3}]}]}
